Laboratory results taken from US20100003217A1, “Compounds and Pharmaceutical Compositions for the Treatment of Viral Infections” (priority 2008, published 2010).
“And” between values parts separate entries of the source, which are not always exact repeats. Equal values may be shown once.

Tested on: human primary hepatocytes
Experiment: Metabolic disposition of [^14C]-Compound 1 and [^14C]-2′-C-methyl guanosine in human primary hepatocytes (incubation medium, cellular extracts, nucleotide levels)
Assay type: in vitro ADME
Procedure: Primary hepatocytes: Freshly isolated cells from animal and human liver were obtained in suspension on ice. Cells were pelleted by centrifugation at 70-75×g (rat) or 95-90×g (monkey and human) and resuspended at 0.8 million cells per mL of platting medium (William's E supplemented with 5% FBS, 0.5% penicillin-streptomycin, 1% L-glutamine, 4 μg/mL insulin and 1 μM dexamethasone). Multi-well collagen I-coated plates (rat tail collagen type I; 12- or 6-well) were then seeded by addition of 1 mL (12-well; 0.8 million cells/well) or 2 mL (6-well; 1.6 million cells/well) of cell suspension. The plates were gently shaken to evenly distribute the cells and placed in an incubator at 37° C. for approximately 4 to 6 hours to allow cells to attach. Once cells were attached, the platting medium was removed and replaced with hepatocyte culture medium (William's E supplemented with penicillin-streptomycin, 1% L-glutamine, 1% insulin-transferrin-selenium and 0.1 μM dexamethasone). Cells were left overnight in an incubator at 37° C. to acclimatize to culture and the medium.
Hepatocyte incubations with radiolabeled Compound 1 and 2′-C-methyl guanosine, both labeled in the C-8 position of the guanine moiety, were conducted at a final volume of 2.0 mL hepatocyte culture medium/well ([…]). Culture medium from overnight incubation of cells was removed and replaced with fresh medium, pre-warmed to 37° C., containing 1 or 10 μM [^14C]-Compound 1 ([…]) or [^14C]-2′-C-methyl guanosine (127 DPM/μmol) from a stock solution in DMSO (final DMSO concentration was 0.1%) or 50% ethanol (final ethanol concentration was 0.2%). After 1, 4, 8 and 24 hours, 0.5-1.0 mL of incubation medium was removed and stored at −20° C. until analysis (described below). The remaining medium was discarded and cell monolayers were carefully washed two times with ice-cold PBS. Following the last wash, all PBS was carefully removed and 1.0 mL of extraction solution (ice-cold 70% methanol) added. Cells were scrapped off and suspended in the extraction solution, transferred to 2 mL polypropylene microfuge tubes and intracellular contents extracted overnight at −20° C.
Preliminary identification of putative metabolites was conducted by comparing the retention time of observed metabolites in incubation medium and cellular extracts with retention times obtained with chemically synthesized standards using the chromatography conditions described below. Further identification of 2′-C-methyl guanosine nucleotides (mono-, di- and triphosphate) was carried out by incubating cellular extract samples with alkaline phosphatase (10 units for 60 min at 37° C.) and comparing the HPLC retention times of the resulting nucleosides with that of authentic 2′-C-methyl guanosine.
Cellular extracts were prepared by centrifugation at 16,000 RCF using an Eppendorf microcentrifuge (Eppendorf, Model 5415D) for 10 min to remove cellular debris. An aliquot of 5-10 μL of the supernatant was added to 5 mL of EcoLite™ (MP, Irvine, Calif.) liquid scintillation cocktail and radioactivity measured by liquid scintillation counting (LSC) using a Beckman Coulter LS6500 multipurpose liquid scintillation counter (Beckman Instruments, Fullerton, Calif.). The remaining sample was then dried using a Labconco refrigerated centrivap concentrator (Labconco, Kansas City, Mo.). Dry extracts were reconstituted in 120 μL of HPLC-grade water and centrifuged at 16,000 RCF using an Eppendorf microcentrifuge for 10 min. Prior to HPLC analysis (described below), radioactivity of the concentrated extracts was measured by LSC using 5 μL aliquots. Extraction recovery was then determined by comparing total radioactivity in extracts before and after drying. The remaining extract was then analyzed by HPLC with online radioactivity detection using a Flow Scintillation Analyzer Radiomatic™ 515TR. Radioactivity in the separated components was quantified by integrating the peaks using Flo-One™ Software (Perkin Elmer Life Sciences). […]

[1] = human hepatocytes (Hu775), 1 μM [^14C]-Compound 1, 0 h
[2] = human hepatocytes (Hu775), 1 μM [^14C]-Compound 1, 1 h
[3] = human hepatocytes (Hu775), 1 μM [^14C]-Compound 1, 8 h
[4] = human hepatocytes (Hu775), 1 μM [^14C]-Compound 1, 24 h
[5] = human hepatocytes Hu775, 1 μM [^14C]-2′-C-methyl guanosine, 1 h
[6] = human hepatocytes Hu775, 1 μM [^14C]-2′-C-methyl guanosine, 8 h
[7] = human hepatocytes Hu775, 1 μM [^14C]-2′-C-methyl guanosine, 24 h

C[C@@]1(O)[C@H](O)[C@@H](COP(=O)(O)O)O[C@H]1n1cnc2c(=O)[nH]c(N)nc21 [Compound 5, [(2R)-2-methyl-β-D-ribofuranosyl]guanine 5′-monophosphate]
metabolites observed in cellular extracts (% of total radioactivity) (human hepatocytes (Hu759, Hu775), 10 μM [^14C]-2′-C-methyl guanosine, 8 h): 1.89% and 1.11%
metabolites observed in cellular extracts (% of total radioactivity) (human hepatocytes (Hu759, Hu775), 10 μM [^14C]-2′-C-methyl guanosine, 24 h): 3.82% and 3.41%
metabolites observed in cellular extracts (% of total radioactivity) (human hepatocytes (Hu759, Hu775), 10 μM [^14C]-Compound 1, 1 h): 6.44% and 8.77%
metabolites observed in cellular extracts (% of total radioactivity) (human hepatocytes (Hu759, Hu775), 10 μM [^14C]-Compound 1, 4 h): 5.70% and 5.54%
metabolites observed in cellular extracts (% of total radioactivity) (human hepatocytes (Hu759, Hu775), 10 μM [^14C]-Compound 1, 8 h): 7.99% and 4.44%
metabolites observed in cellular extracts (% of total radioactivity) (human hepatocytes (Hu759, Hu775), 10 μM [^14C]-Compound 1, 24 h): 5.38% and 12.8%
2′-C-methyl guanosine nucleotide levels in cellular extracts [1]: BLD^a (BLD = below limit of detection (0.02 pmol/million cells))
metabolites observed in medium (% of total radioactivity) [1]: BLD
2′-C-methyl guanosine nucleotide levels in cellular extracts [2]: 2.40 pmol/million cells
metabolites observed in cellular extracts (% of total radioactivity) [2]: 5.45%
metabolites observed in medium (% of total radioactivity) [2]: BLD
2′-C-methyl guanosine nucleotide levels in cellular extracts [3]: 2.10 pmol/million cells
metabolites observed in cellular extracts (% of total radioactivity) [3]: 3.60%
metabolites observed in medium (% of total radioactivity) [3]: 10.4%
2′-C-methyl guanosine nucleotide levels in cellular extracts [4]: 5.80 pmol/million cells
metabolites observed in cellular extracts (% of total radioactivity) [4]: 6.41%
metabolites observed in medium (% of total radioactivity) [4]: 8% and 8.29%
metabolites observed in medium (% of total radioactivity) (human hepatocytes (lots Hu759, Hu775), 10 μM [^14C]-Compound 1, 0 h): BLD
metabolites observed in medium (% of total radioactivity) (human hepatocytes (lots Hu759, Hu775), 10 μM [^14C]-Compound 1, 1 h): 4.4% and 0.5%
metabolites observed in medium (% of total radioactivity) (human hepatocytes (lots Hu759, Hu775), 10 μM [^14C]-Compound 1, 4 h): 3.9% and 4.5%
metabolites observed in medium (% of total radioactivity) (human hepatocytes (lots Hu759, Hu775), 10 μM [^14C]-Compound 1, 8 h): 5.1% and 7.2%
metabolites observed in medium (% of total radioactivity) (human hepatocytes (lots Hu759, Hu775), 10 μM [^14C]-Compound 1, 24 h): 4.7% and 7.1%
2′-C-methyl guanosine nucleotide levels in cellular extracts (human hepatocytes Hu759, 10 μM [^14C]-2′-C-methyl guanosine, 0 h): 0 pmol/million cells
2′-C-methyl guanosine nucleotide levels in cellular extracts (human hepatocytes Hu759, 10 μM [^14C]-2′-C-methyl guanosine, 1 h): BLD^a (BLD = below limit of detection (0.02 pmol/million cells))
2′-C-methyl guanosine nucleotide levels in cellular extracts (human hepatocytes Hu759, 10 μM [^14C]-2′-C-methyl guanosine, 4 h): BLD (BLD = below limit of detection (0.02 pmol/million cells))
2′-C-methyl guanosine nucleotide levels in cellular extracts (human hepatocytes Hu759, 10 μM [^14C]-2′-C-methyl guanosine, 8 h): 9.00 pmol/million cells
2′-C-methyl guanosine nucleotide levels in cellular extracts (human hepatocytes Hu759, 10 μM [^14C]-2′-C-methyl guanosine, 24 h): 23.0 pmol/million cells
2′-C-methyl guanosine nucleotide levels in cellular extracts (human hepatocytes Hu759, 10 μM [^14C]-Compound 1, 0 h): 0 pmol/million cells
2′-C-methyl guanosine nucleotide levels in cellular extracts (human hepatocytes Hu759, 10 μM [^14C]-Compound 1, 1 h): 4.00 pmol/million cells
2′-C-methyl guanosine nucleotide levels in cellular extracts (human hepatocytes Hu759, 10 μM [^14C]-Compound 1, 4 h): 15.0 pmol/million cells
2′-C-methyl guanosine nucleotide levels in cellular extracts (human hepatocytes Hu759, 10 μM [^14C]-Compound 1, 8 h): 25.0 pmol/million cells
2′-C-methyl guanosine nucleotide levels in cellular extracts (human hepatocytes Hu759, 10 μM [^14C]-Compound 1, 24 h): 28.0 pmol/million cells
2′-C-methyl guanosine nucleotide levels in cellular extracts (human hepatocytes Hu775, 1 μM [^14C]-2′-C-methyl guanosine, 0 h): BLD (BLD = below limit of detection (0.02 pmol/million cells))
2′-C-methyl guanosine nucleotide levels in cellular extracts [5]: BLD (BLD = below limit of detection (0.02 pmol/million cells))
Major metabolites observed in cellular extracts (% of total radioactivity) [5]: BLD^a (BLD = below limit of detection (30 DPM))
2′-C-methyl guanosine nucleotide levels in cellular extracts [6]: BLD (BLD = below limit of detection (0.02 pmol/million cells))
Major metabolites observed in cellular extracts (% of total radioactivity) [6]: BLD (BLD = below limit of detection (30 DPM))
2′-C-methyl guanosine nucleotide levels in cellular extracts [7]: 1.50 pmol/million cells
Major metabolites observed in cellular extracts (% of total radioactivity) [7]: 3.39 % of total radioactivity
2′-C-methyl guanosine nucleotide levels in cellular extracts (human hepatocytes Hu775, 10 μM [^14C]-2′-C-methyl guanosine, 0 h): 0 pmol/million cells
